Laboratory results reported in patent US12121545B2, “Composition for a fecal-derived sterilized postbiotic in anti-aging and neurotherapeutic applications” (priority 2022, dated 2024).

Key:
[1] = system: Caenorhabditis elegans; test: Oxidative stress tolerance after paraquat exposure; format: in vivo; details: 10 mM, positive control; over 24 hours post-exposure; negative control (DMSO) declined 41%
Text: Still referring to FIG. 1, composition 100 may be configured to improve oxidative stress tolerance, preserve mitochondrial function, support energy production, enhance cellular defense mechanisms against oxidative stress, stimulate endogenous antioxidants and enzymes, reduce oxidative stress and/or mitochondrial oxidative stress, improve mitochondrial function, improve healthspan, improve longevity, improve autophagy, increase autophagy, or the like. Oxidative stress and healthspan disclosed herein are further described below. For the purposes of this disclosure, “oxidative stress” is a physiological state characterized by an imbalance between the production of reactive oxygen species and the body's antioxidant defenses. In a non-limiting example, reactive oxygen species (ROS) can be generated endogenously as byproducts of cellular metabolism; for instance in the mitochondria. In another non-limiting example, ROS can be generated exogenously in the result of environmental pollutants, radiation, cigarette smoking, alcohol, certain foods, and drugs. In a healthy human, the body's antioxidant defenses can neutralize these molecules before they cause significant cellular damage. However, when their production overwhelms the body's capacity to neutralize and eliminate them, they can cause widespread cellular damage. […]

[2] = system: C. elegans adult animals; test: Lifespan of C. elegans adult animals (Kaplan-Meier survival); format: in vivo
Description: In a embodiments, organisms may include a vehicle control 204. In an embodiment, organisms may be treated with at least 0.05 mg/ml 208 of composition 100 and compared to a “vehicle control,” which as used in this disclosure, may include organisms not treated with composition 100. Lifespan data was represented as the percent of organism surviving over time, known as the Kaplan-Meier Estimate of Survival function.
Chart 212 illustrates the impact of resveratrol 216 at 100 μM; and rapamycin 220 at 50 μM; composition 100 at 0.05 mg/ml 208, 0.25 mg/ml 224, and 1.25 mg/ml 228; resveratrol at 100 μM; and rapamycin at 50 μM. In another non-limiting example, subjects, for instance, C. elegans, may be divided into five groups, with each group receiving a different concentration of composition (0.05 mg/mL 208, 0.25 mg/mL 224, or 1.25 mg/mL 228), vitamin C as a positive control (10 mM), or dimethyl sulfoxide (DMSO) as a negative control (0.05% DMSO).

[3] = 50 μM, * p<0.05 vs negative control
[4] = 100 μM, * p<0.05 vs negative control

O=C1O[C@H]([C@@H](O)CO)C(O)=C1O [vitamin C]
average decline after paraquat-induced oxidative stress [1]: 25%

CO[C@H]1C[C@@H]2CC[C@@H](C)[C@@](O)(O2)C(=O)C(=O)N2CCCC[C@H]2C(=O)O[C@H]([C@H](C)C[C@@H]2CC[C@@H](O)[C@H](OC)C2)CC(=O)[C@H](C)/C=C(\C)[C@@H](O)[C@@H](OC)C(=O)[C@H](C)C[C@H](C)/C=C/C=C/C=C/1C [Rapamycin, rapamycin]
age at 25% Mortality [2, 3]: 24.6* days
age at 50% Mortality (median lifespan) [2, 3]: 29.5* days
age at 75% Mortality [2, 3]: 32.8* days
age at 90% Mortality [2, 3]: 35.7* days
age at 95% Mortality [2, 3]: 36.1* days

Oc1ccc(C=Cc2cc(O)cc(O)c2)cc1 [Resveratrol, resveratrol]
age at 90% Mortality ([2]; 100 μM): 30.2 days
age at 25% Mortality [2, 4]: 22.4* days
age at 50% Mortality (median lifespan) [2, 4]: 25.5* days
age at 75% Mortality [2, 4]: 28.3* days
age at 95% Mortality [2, 4]: 32.3* days
